# Measurements reported in patent US9757379B2, “Inhibition of HIF-2α heterodimerization with HIF1β (ARNT)” (The Board of Regents of the University of Texas System, priority 2012, dated 2017).
# Entries after “also recorded” stand apart in the source; their conditions may differ.
# Experiments:
# EPO = EPO mRNA expression in Hep3B cells (HIF-2α marker); type: cell-based; settings: 1 or 10 μM, hypoxic (1% O2) 6 or 12 hr
# GST-ARNT-PAS-B*-FLAG = GST-ARNT-PAS-B*-FLAG (Homo sapiens, UniProt P27540, E362R); experiment: AlphaScreen control reaction with doubly tagged protein; type: biochemical; settings: single doubly tagged protein
# Chain of GST-ARNT-PAS-B*-FLAG (P27540 355-470 E362R): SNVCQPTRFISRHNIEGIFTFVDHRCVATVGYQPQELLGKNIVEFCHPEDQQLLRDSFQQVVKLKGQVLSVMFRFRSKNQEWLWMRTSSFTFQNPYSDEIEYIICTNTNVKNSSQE
# From the text: Upon illumination with red (680 nm) light, donor beads will generate short-lived singlet oxygen (^1O2). Nearby (<200 nm) acceptor beads can react with ^1O2 to emit light at shorter wavelengths (top). Compounds that disrupt the complex correspondingly eliminate this signal (bottom). Compounds that non-specifically interfere with the AlphaScreen assay can be identified with a counterscreen in which the ARNT PAS-B* domain was simultaneously tagged with both the GST and FLAG tags. […] At these concentrations, protein binding to the acceptor beads has become saturated and free ARNT PAS-B* competes with the coated acceptor beads for the donor beads bound to HIF-2α PAS-B*. […] Assays were performed in triplicate and the error bars represent±SD.
# [1] = biological target: HIF-2α PAS-B*/ARNT PAS-B* heterodimer (Homo sapiens, UniProt Q99814, R247E); experiment: AlphaScreen, HIF-2α PAS-B*/ARNT PAS-B* heterodimerization;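 also: GST-tagged HIF-2α PAS-B* and FLAG-tagged ARNT PAS-B* with glutathione donor and anti-FLAG acceptor beads, luminescence after 680 nm excitation, loss of signal indicating disrupted heterodimer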
# Chain of HIF-2α PAS-B*/ARNT PAS-B* heterodimer (Q99814 240-350 R247E, one chain of several): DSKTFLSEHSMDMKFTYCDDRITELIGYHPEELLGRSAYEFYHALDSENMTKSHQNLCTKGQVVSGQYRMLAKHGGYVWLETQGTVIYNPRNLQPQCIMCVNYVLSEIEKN
# From the text: (FIG. 8a) As shown in the cartoon schematic, interactions between GST-tagged HIF-2α (green) and FLAG-tagged ARNT (blue) PAS-B* domains recruit both donor beads (D), coated with glutathione, and acceptor beads (A), coated with anti-FLAG antibodies, to one another. Upon illumination with red (680 nm) light, donor beads will generate short-lived singlet oxygen (^1O2). Nearby (<200 nm) acceptor beads can react with ^1O2 to emit light at shorter wavelengths (top). Compounds that disrupt the complex correspondingly eliminate this signal (bottom). Compounds that non-specifically interfere with the AlphaScreen assay can be identified with a counterscreen in which the ARNT PAS-B* domain was simultaneously tagged with both the GST and FLAG tags. (FIG. 8b) The AlphaScreen signal (relative units; RU) reflecting protein-protein interactions between 25 (open triangles), 50 (open circles) or 100 (closed circles) nM HIF-2α PAS-B* increases with increasing concentrations of ARNT PAS-B*. At the highest ARNT PAS-B* concentrations, a decrease in signal reflects the hook effect. At these concentrations, protein binding to the acceptor beads has become saturated and free ARNT PAS-B* competes with the coated acceptor beads for the donor beads bound to HIF-2α PAS-B*. […] Assays were performed in triplicate and the error bars represent±SD.
# Inhibition of heterodimerization of HIF-2α to HIF1β (ARNT) may be determined in an Amplified Luminescent Proximity Homogeneous Assay (AlphaScreen).
# The AlphaScreen assay can be done according to the following procedures: • 1. Prepare cold binding buffer solution: 20 mM Tris-Cl (pH=7.5), 100 mM NaCl, 1 mM DTT, 0.02% Tween-20 (final concentration) and place on ice to keep temperature approximately 4° C. • 2. Prepare Protein Mix: To a 50 mL conical tube add 23 mL of cold buffer and 0.04 mL of both GST-HIF2α PASB* (100 μM) and ARNT-PASB*-Flag (100 μM). • 3. Distribute to 96 well plate: Add 60 μL of protein mix to each wells. • 4. Adding Compound: Dissolve compounds in DMSO to obtain a final concentration of 10 mM. Then create the appropriate dilutions for your particular compound in glass vials. Once all the dilutions are ready place 1 μL of compound in each well. • 5. Prepare Bead mix: In the dark room using green light only create a tube with 3.84 mL of cold buffer and 3 μL of GST Donor beads and Flag acceptor beads. • 6. Distribute Bead mix: Invert the tube a couple times before distributing 40 μL of mix to each well. • 7. Incubation: After adding beads wrap the plate in tin foil twice and remove the covered plate from dark room. Incubate the plate at room temperature while rocking gently for 4 hours. • 8. Read: After 4 hours place the uncovered plate in the plate reader. Make sure the room is relatively tree of white light when placing the plate in the machine. It is ok to have the green light on if needed. • 9. […] Flag acceptor beads should be aliquoted into small opaque tubes (20-50 μl per tube) upon arrival from the manufacturer. Place both sets of beads in 4° C. storage when not in use. • 11. Avoid expose beads to white light. • 12. Pipette beads up and down several times before adding to a tube of cold buffer solution. • 13. Amount of Beads used for Bead mix may vary from batch to batch.
# 786-0 cells = experiment: Cell viability, ATP levels by Cell Titer Glo; type: cell-based, human; settings: 24 hr, as much as 30 μM
# Procedure: Assays were performed in triplicates and the error bars represent±SD.
# (§1) 786-0 cells, derived from a human renal cell carcinoma, lack functional pVHL and constitutively accumulate HIF-2α under normoxic conditions. These cells also lack detectable HIF-1α expression so that HIF-dependent regulation of target genes is attributable to HIF-2α isoform.
# HIF-1α = biological target: T1, HIF-1α (Homo sapiens, UniProt Q16665); experiment: ChIP, HIF-1α DNA binding in cultured cells; type: cell-based; settings: 10 μM, hypoxic conditions
# T1 construct: endogenous in cells
# T1 sequence (Q16665 whole entry): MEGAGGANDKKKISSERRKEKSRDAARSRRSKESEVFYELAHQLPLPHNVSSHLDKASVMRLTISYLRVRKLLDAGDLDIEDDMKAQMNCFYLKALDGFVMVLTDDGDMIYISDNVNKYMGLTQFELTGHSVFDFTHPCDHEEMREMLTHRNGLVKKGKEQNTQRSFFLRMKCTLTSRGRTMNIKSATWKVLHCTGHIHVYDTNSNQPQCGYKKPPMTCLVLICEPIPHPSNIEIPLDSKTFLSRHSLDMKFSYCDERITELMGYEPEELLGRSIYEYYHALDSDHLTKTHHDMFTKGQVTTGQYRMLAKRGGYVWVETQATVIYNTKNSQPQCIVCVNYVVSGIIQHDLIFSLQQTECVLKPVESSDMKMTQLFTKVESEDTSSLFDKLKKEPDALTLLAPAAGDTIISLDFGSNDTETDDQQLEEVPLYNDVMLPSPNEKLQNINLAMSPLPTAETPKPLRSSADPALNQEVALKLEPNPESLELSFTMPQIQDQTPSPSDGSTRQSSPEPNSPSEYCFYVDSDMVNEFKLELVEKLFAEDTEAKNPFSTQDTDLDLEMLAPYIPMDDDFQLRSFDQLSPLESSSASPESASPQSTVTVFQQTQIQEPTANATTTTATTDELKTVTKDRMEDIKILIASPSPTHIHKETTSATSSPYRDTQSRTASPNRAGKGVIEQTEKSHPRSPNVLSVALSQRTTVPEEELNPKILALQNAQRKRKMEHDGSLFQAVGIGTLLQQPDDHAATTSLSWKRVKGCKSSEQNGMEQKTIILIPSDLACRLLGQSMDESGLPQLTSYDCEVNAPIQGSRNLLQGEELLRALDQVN
# T1 sequence (P27540 2-789 partner limits assumed): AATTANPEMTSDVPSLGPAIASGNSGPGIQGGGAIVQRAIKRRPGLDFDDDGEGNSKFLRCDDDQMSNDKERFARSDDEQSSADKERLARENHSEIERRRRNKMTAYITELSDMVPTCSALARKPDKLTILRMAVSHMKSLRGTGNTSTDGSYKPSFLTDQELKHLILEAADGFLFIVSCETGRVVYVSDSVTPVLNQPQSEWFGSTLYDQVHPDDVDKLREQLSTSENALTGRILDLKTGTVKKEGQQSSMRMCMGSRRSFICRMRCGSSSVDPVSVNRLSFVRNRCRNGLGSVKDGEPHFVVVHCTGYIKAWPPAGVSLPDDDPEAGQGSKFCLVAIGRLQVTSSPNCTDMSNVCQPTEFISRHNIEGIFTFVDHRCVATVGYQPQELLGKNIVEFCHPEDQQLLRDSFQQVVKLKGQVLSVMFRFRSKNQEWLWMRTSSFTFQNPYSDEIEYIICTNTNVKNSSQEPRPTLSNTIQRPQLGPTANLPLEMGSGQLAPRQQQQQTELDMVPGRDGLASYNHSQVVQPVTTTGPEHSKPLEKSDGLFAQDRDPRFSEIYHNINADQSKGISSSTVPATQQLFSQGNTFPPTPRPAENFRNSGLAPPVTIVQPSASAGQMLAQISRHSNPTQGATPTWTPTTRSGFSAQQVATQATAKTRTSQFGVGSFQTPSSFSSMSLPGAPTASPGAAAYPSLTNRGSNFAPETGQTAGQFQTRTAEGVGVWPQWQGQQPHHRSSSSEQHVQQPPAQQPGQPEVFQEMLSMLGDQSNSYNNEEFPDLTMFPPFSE
# Procedure: (§2) Chromatin immunoprecipation (ChIP) using antibodies raised against HIF-1α or HIF-2α was used to measure HIF DNA binding in cultured cells.
# (§3) Proc Natl Acad Sci USA 106, 4260-4265 (2009) using the ChIP-IT Express Enzymatic Kit (Active Motif) according to the manufacturer's protocol. ChIP assays were carried out using normal mouse IgG (Santa Cruz Biotechnology), anti-HIF-2α mouse monoclonal antibody (Novus Biologicals), or anti-HIF-1α mouse monoclonal antibody (BD Biosciences). The precipitated genomic DNA was analyzed by qPCR using the primers for a human EPO enhancer amplicon ([…]; […]). The captured genomic DNA was measured by normalizing with that of input material and compared between sample.
# HIF-1 heterodimerization = biological target: T2, HIF-1 heterodimerization (Homo sapiens, UniProt Q16665); experiment: Co-IP of HIF-1α with ARNT, nuclear extracts of hypoxic Hep3B cells; type: biochemical; settings: increasing amounts
# T2 construct: Nuclear extracts prepared from hypoxic Hep3B cells expressing ARNT, HIF-1α, and HIF-2α (input); endogenous in cells; host or cells: Hep3B (hypoxic), nuclear extracts
# T2 sequence (Q16665 whole entry): as the sequence (Q16665 whole entry) above
# T2 sequence (P27540 2-789 partner limits assumed): as the sequence (P27540 2-789 partner limits assumed) above
# From the text: (§4) Ensuing allosteric conformational changes propagate to the surface of the domain, weakening interactions with the ARNT PAS-B domain and disrupting heterodimerization of the full length HIF-2 transcription factor.
# HIF-2α or HIF-1α mRNA = experiment: HIF-1α and HIF-2α mRNA levels in Hep3B cells, RT-PCR; type: cell-based
# HIF-2α [2] = experiment: ChIP, HIF-2α DNA binding in cultured cells; type: cell-based, human; settings: 10 μM, hypoxic conditions
# Procedure: as §2, §3
# [3] = biological target: T3, full length HIF-2α and ARNT (Homo sapiens, UniProt Q99814); experiment: Co-IP of HIF-2α with ARNT, nuclear extracts of hypoxic Hep3B cells; type: biochemical; settings: increasing concentrations
# T3 construct: heterodimerization between full length HIF-2α and ARNT polypeptides; endogenous in cells; host or cells: Hep3B (hypoxic), nuclear extracts
# T3 sequence (Q99814 whole entry): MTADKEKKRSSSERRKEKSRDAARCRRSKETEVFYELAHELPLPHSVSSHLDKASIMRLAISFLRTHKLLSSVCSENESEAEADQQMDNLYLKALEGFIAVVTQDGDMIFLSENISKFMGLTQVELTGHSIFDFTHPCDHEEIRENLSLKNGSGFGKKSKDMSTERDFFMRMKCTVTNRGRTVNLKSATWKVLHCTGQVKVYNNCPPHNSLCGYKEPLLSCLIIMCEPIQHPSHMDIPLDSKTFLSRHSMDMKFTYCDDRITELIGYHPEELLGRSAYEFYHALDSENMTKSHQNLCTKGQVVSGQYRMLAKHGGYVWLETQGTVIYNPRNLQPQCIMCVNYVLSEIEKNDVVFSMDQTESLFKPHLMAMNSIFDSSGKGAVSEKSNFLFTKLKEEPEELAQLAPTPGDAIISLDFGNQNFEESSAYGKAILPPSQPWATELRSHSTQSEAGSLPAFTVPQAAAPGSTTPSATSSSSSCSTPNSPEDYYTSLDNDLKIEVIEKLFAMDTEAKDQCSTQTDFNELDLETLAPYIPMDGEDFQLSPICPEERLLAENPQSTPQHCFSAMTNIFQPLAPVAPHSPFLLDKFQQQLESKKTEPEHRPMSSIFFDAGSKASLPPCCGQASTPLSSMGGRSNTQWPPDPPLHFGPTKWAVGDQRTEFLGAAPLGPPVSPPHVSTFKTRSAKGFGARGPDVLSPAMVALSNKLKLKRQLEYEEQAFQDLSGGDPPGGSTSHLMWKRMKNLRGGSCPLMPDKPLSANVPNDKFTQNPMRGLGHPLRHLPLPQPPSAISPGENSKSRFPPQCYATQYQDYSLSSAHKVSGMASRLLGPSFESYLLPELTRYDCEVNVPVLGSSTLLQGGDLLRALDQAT
# Procedure: An antibody recognizing the N-terminus of ARNT, was used to immunoprecipitate (IP) the endogenous ARNT protein from the nuclear extracts (FIG. 17 b; top panel).
# Co-IP: Nuclear protein extraction and co-IP experiments were performed as reported in Semenza, G. L. Hypoxia-inducible factors: mediators of cancer progression and targets for cancer therapy. […] The following antibodies were used for immunoblot analysis: anti-HIF-1α mouse monoclonal antibody (BD Biosciences); anti-EPAS/HIF-2α mouse monoclonal antibody (Novus Biological); anti-ARNT/HIF-1β mouse monoclonal antibody (Novus Biological).
# VEGF [4] = experiment: HIF-2 target gene (VEGF) expression in 786-0 cells, RT-PCR; type: cell-based, human; settings: 18 hr
# From the text: as §1
# HIF-1α PAS-B = HIF-1α PAS-B (Homo sapiens, UniProt Q16665); experiment: Isothermal titration calorimetry (ITC) on HIF-1α PAS-B; type: binding; settings: same conditions as for HIF-2α PAS-B
# Chain of HIF-1α PAS-B (Q16665 238-349): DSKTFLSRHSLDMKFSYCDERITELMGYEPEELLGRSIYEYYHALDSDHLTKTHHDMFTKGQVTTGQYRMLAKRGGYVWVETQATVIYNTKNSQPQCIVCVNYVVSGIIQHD
# From the text: as §4
# VEGF [5] = experiment: VEGF protein secretion by ELISA, 786-O cells; type: cell-based, human; settings: about 18 hours, 0.00655-20 μM
# Procedure: VEGF protein secretion was measured by ELISA following incubation of cultured 786-O cells for about eighteen (18) hours with Compund (1) (FIG. 19a) or with Compound (47) (FIG. 19b).
# PGK1 = PGK1 mRNA expression in Hep3B cells (HIF-1α marker); type: cell-based; settings: 1 or 10 μM, hypoxic (1% O2) 6 or 12 hr
# HIF-2α [6] = experiment: HIF-2α expression in 786-0 cells (RT-PCR, immunoblot); type: cell-based, human; settings: normoxic 786-0 cells
# From the text: as §1
structure (smiles),measurement,setting,value
"O=[N+]([O-])c1c(Nc2cc(F)cc(Cl)c2)ccc2nonc12 [Compound 1, N-(3-chloro-5-fluorophenyl)-4-nitrobenzo[c][1,2,5]oxadiazol-5-amine]",Hypoxic induction of EPO mRNA,EPO,antagonized
same,Effect on AlphaScreen signal of control reaction,GST-ARNT-PAS-B*-FLAG,No effect
same,IC50,[1],100 nM
same,Effect on HIF-2α/ARNT PAS-B* heterodimerization in AlphaScreen,[1]; triplicate,blocks heterodimer assembly
same,Toxicity to cultured cells (ATP levels as cell viability),786-0 cells,No overt toxicity; also recorded: not overtly toxic
same,HIF-1α DNA-binding activity (ChIP),HIF-1α,unaffected
same,Effect on HIF-1 heterodimerization by Co-IP,HIF-1 heterodimerization,little effect
same,HIF-1α and -2α mRNA levels,HIF-2α or HIF-1α mRNA,no effect
same,HIF-2α DNA-binding activity (ChIP),HIF-2α [2],substantially decreased; also recorded: selectively disrupts
same,Heterodimerization of full length HIF-2 transcription factor (co-IP),[3],disrupts heterodimerization
same,Expression of HIF-2 target gene (VEGF),VEGF [4],reduced in a dose-dependent manner; also recorded: antagonized
same,"ITC protein-ligand interaction, HIF-1α PAS-B",HIF-1α PAS-B,effectively does not bind; also recorded: does not show detectable protein-ligand interaction
same,Kd,HIF-1α PAS-B,> 5000 nM
same,VEGF protein secretion,VEGF [5],reduce VEGF protein secretion in a dose-dependent manner
same,Expression of PGK1,PGK1,no effect
same,"Effect on HIF-2α expression (mRNA, protein)",HIF-2α [6],does not alter; also recorded: no effect
